# From BindingDB's records for patent US11208411 (The Regents of the University of California; Washington …, 2021)
# Target: Proto-oncogene tyrosine-protein kinase Src (Homo sapiens, UniProt P12931)
# Experiment: Expression and Purification of Active Kinases
# Sequence of Proto-oncogene tyrosine-protein kinase Src (P12931 2-536 limits assumed): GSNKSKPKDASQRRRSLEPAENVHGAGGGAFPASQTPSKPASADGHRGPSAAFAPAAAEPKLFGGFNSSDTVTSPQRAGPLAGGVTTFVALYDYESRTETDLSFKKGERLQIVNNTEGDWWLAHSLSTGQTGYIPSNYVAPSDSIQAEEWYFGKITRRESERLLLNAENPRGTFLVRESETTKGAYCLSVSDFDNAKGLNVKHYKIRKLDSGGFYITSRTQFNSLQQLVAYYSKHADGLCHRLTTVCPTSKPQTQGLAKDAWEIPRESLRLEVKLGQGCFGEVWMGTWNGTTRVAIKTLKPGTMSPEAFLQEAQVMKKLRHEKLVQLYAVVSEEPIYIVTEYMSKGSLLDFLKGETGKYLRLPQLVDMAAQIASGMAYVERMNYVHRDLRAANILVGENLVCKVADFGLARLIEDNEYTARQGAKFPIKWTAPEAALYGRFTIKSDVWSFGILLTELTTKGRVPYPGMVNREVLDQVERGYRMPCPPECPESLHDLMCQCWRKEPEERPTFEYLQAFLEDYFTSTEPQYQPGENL
structure (smiles),measurement,value
"CC(C)(C)n1nc(Cc2coc3ccccc23)c2c(N)ncnc21 [US11208411, Cmpd LJQ-145]",IC50,1570 nM
